Data taken from patent US20230278995A1, “1,3,4-OXADIAZOLE DERIVATIVE COMPOUNDS AS HISTONE DEACETYLASE 6 INHIBITOR, AND THE PHARMACEUTICAL COMPOSITION COMPRISING THE SAME” (CHONG KUN DANG PHARMACEUTICAL CORP., priority 2020, published 2023).
pIC50: −log10 of the molar value.

Legend:
[1] = biological target: T1, human recombinant HDAC1 (Homo sapiens, UniProt Q13547); test: HDAC enzyme activity inhibition assay (HDAC Fluorimetric Drug Discovery Kit), HDAC1; assay type: biochemical; conditions: human recombinant HDAC1, Fluor de Lys-SIRT1 substrate, 30° C. 60 minutes
T1 construct: purchased Enzo Life Sciences, Inc. BML-SE456
T1 sequence (Q13547 whole entry): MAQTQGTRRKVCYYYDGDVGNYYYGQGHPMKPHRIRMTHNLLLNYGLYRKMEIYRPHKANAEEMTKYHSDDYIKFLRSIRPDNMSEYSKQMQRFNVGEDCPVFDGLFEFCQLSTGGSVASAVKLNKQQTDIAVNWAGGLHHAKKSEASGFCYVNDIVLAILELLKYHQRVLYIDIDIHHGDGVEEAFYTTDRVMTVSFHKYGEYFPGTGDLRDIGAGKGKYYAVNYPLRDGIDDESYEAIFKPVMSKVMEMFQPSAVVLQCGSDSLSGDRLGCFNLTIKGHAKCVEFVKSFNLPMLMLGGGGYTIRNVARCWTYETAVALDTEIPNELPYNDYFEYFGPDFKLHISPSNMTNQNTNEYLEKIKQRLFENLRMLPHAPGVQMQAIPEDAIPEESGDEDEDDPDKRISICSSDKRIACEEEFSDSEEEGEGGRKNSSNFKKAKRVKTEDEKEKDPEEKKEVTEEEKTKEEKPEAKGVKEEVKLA
How it was run: (§1)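 Recombinant human HDAC1 or HDAC6 (0.3 μg) reacted with 10 μM Fluor de Lys-SIRT1 substrate at 30 °C for 60 min. Developer added for 30 min, then fluorescence read at Ex 360/Em 460.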

[2] = biological target: T2, human recombinant HDAC6 (Homo sapiens, UniProt Q9UBN7); test: HDAC enzyme activity inhibition assay (HDAC Fluorimetric Drug Discovery Kit), HDAC6; assay type: biochemical; conditions: for HDAC6 selectivity (fold): HDAC1 vs HDAC6; for pIC50: human recombinant HDAC6, same protocol as HDAC1
T2 construct: purchased Calbiochem Inc. 382180
T2 sequence (Q9UBN7 1-1215): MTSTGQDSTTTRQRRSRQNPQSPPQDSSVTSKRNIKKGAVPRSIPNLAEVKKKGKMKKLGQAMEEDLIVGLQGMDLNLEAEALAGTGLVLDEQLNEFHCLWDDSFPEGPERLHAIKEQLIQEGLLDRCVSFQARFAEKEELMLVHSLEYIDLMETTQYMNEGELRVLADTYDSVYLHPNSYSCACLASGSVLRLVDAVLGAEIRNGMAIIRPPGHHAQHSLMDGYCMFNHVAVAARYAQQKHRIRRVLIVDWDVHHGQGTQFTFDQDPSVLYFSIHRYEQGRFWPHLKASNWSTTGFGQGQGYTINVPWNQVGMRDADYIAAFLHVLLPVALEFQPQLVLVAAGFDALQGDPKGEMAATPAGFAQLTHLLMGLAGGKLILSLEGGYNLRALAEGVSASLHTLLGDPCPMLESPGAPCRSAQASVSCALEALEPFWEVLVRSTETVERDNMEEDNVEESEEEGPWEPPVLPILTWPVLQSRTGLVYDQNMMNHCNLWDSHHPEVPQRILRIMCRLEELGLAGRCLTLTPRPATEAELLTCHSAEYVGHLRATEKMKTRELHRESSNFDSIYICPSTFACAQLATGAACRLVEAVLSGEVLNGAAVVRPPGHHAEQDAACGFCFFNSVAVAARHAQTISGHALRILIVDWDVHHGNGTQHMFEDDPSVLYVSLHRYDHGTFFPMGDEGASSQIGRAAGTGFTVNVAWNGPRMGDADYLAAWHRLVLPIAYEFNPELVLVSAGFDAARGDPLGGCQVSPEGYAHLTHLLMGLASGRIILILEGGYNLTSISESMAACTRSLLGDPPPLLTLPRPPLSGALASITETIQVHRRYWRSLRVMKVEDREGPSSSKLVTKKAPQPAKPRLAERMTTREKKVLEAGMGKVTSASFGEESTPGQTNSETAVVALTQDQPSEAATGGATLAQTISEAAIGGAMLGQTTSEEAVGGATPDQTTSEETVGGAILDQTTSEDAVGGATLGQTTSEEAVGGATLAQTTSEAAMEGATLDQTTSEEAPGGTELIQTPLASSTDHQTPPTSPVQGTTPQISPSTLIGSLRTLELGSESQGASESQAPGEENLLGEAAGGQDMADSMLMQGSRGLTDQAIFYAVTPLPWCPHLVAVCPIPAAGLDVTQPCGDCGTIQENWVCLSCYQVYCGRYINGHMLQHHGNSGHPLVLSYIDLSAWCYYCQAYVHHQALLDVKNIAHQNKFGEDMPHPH
How it was run: as §1

Row | SMILES | pIC50 [1] | HDAC6 selectivity (fold) [2] | pIC50 [2]
1 | O=C(C1CCCC1)N1CC(F)(C(=O)N(Cc2ccc(-c3nnc(C(F)F)o3)cn2)c2ccccc2)C1 [Compound 3160, 1-(cyclopentanecarbonyl)-N-((5-(5-(difluoromethyl)-1,3,4-oxadiazol-2-yl)pyridin-2-yl)methyl)-3-fluoro-N-phenylazetidine-3-carboxamide] | < 4.30 | 1,466 fold | 7.47
2 | CC(C)CC(=O)N1CC(F)(C(=O)N(Cc2ccc(-c3nnc(C(F)F)o3)cn2)c2ccccc2)C1 [Compound 3155, N-((5-(5-(difluoromethyl)-1,3,4-oxadiazol-2-yl)pyridin-2-yl)methyl)-3-fluoro-1-(3-methylbutanoyl)-N-phenylazetidine-3-carboxamide] | < 4.30 | 1,326 fold | 7.42
3 | O=C(N(Cc1ccc(-c2nnc(C(F)F)o2)cc1F)c1ccccc1)C1(F)CCN(C2COC2)CC1 [Compound 2869, N-(4-(5-(difluoromethyl)-1,3,4-oxadiazol-2-yl)-2-fluorobenzyl)-4-fluoro-1-(oxetan-3-yl)-N-phenylpiperidine-4-carboxamide] | < 4.30 | 464 fold | 6.97
4 | CC(C)N1CCC(N2CC(F)(C(=O)N(Cc3ccc(-c4nnc(C(F)F)o4)cn3)c3ccccc3)C2)CC1 [Compound 3115, N-((5-(5-(difluoromethyl)-1,3,4-oxadiazol-2-yl)pyridin-2-yl)methyl)-3-fluoro-1-(1-isopropylpiperidin-4-yl)-N-phenylazetidine-3-carboxamide] | < 4.30 | 2,040 fold | 7.61
5 | CS(=O)(=O)N1CCC(F)(C(=O)N(Cc2ccc(-c3nnc(C(F)F)o3)cc2F)c2ccccc2)CC1 [Compound 3442, N-(4-(5-(difluoromethyl)-1,3,4-oxadiazol-2-yl)-2-fluorobenzyl)-4-fluoro-1-(methylsulfonyl)-N-phenylpiperidine-4-carboxamide] | < 4.30 | 154 fold | 6.49
6 | O=C(N(Cc1ccc(-c2nnc(C(F)F)o2)cn1)c1cccc(F)c1)C1(F)CN(C2CN(C3COC3)C2)C1 [Compound 3395, N-((5-(5-(difluoromethyl)-1,3,4-oxadiazol-2-yl)pyridin-2-yl)methyl)-3-fluoro-N-(3-fluorophenyl)-1′-(oxetan-3-yl)-[1,3′-biazetidine]-3-carboxamide] | < 4.30 | 1,388 fold | 7.44
7 | COCCC(=O)N1CC(F)(C(=O)N(Cc2ccc(-c3nnc(C(F)F)o3)cn2)c2ccccc2)C1 [Compound 3157, N-((5-(5-(difluoromethyl)-1,3,4-oxadiazol-2-yl)pyridin-2-yl)methyl)-3-fluoro-1-(3-methoxypropanoyl)-N-phenylazetidine-3-carboxamide] | < 4.30 | 941 fold | 7.27
8 | CC(C)N1CC(N2CCC(F)(C(=O)N(Cc3ccc(-c4nnc(C(F)F)o4)cn3)c3cccc(F)c3)CC2)C1 [Compound 3393, N-((5-(5-(difluoromethyl)-1,3,4-oxadiazol-2-yl)pyridin-2-yl)methyl)-4-fluoro-N-(3-fluorophenyl)-1-(1-isopropylazetidine-3-yl)piperidin-4-carboxamide] | < 4.30 | 2,717 fold | 7.74
9 | CS(=O)(=O)N1CC(F)(C(=O)N(Cc2ccc(-c3nnc(C(F)F)o3)cc2F)c2ccccc2)C1 [Compound 3436, N-(4-(5-(difluoromethyl)-1,3,4-oxadiazol-2-yl)-2-fluorobenzyl)-3-fluoro-1-(methylsulfonyl)-N-phenylazetidine-3-carboxamide] | < 4.30 | 378 fold | 6.88
10 | CC(=O)N1CC(F)(C(=O)N(Cc2ccc(-c3nnc(C(F)F)o3)cn2)c2cccc(F)c2)C1 [Compound 3164, 1-acetyl-N-((5-(5-(difluoromethyl)-1,3,4-oxadiazol-2-yl)pyridin-2-yl)methyl)-3-fluoro-N-(3-fluorophenyl)azetidine-3-carboxamide] | < 4.30 | 2,808 fold | 7.75
11 | O=C(N(Cc1ccc(-c2nnc(C(F)F)o2)cn1)c1cccc(F)c1)C1(F)CN(C2CN(C3CCC3)C2)C1 [Compound 3394, 1′-cyclobutyl-N-((5-(5-(difluoromethyl)-1,3,4-oxadiazol-2-yl)pyridin-2-yl)methyl)-3-fluoro-N-(3-fluorophenyl)-[1,3′-biazetidine]-3-carboxamide] | < 4.30 | 1,886 fold | 7.58
12 | CCCCN1CCC(N2CC(F)(C(=O)N(Cc3ccc(-c4nnc(C(F)F)o4)cn3)c3cccc(F)c3)C2)CC1 [Compound 3402, 1-(1-butylpiperidin-4-yl)-N-((5-(5-(difluoromethyl)-1,3,4-oxadiazol-2-yl)pyridin-2-yl)methyl)-3-fluoro-N-(3-fluorophenyl)azetidine-3-carboxamide] | < 4.30 | 2,403 fold | 7.68

More lines, now with the values ahead:

Row | pIC50 [1] | HDAC6 selectivity (fold) [2] | pIC50 [2] | SMILES
13 | < 4.30 | 178 fold | 6.55 | CC(C)C(=O)N1CCC(F)(C(=O)N(Cc2ccc(-c3nnc(C(F)F)o3)cc2F)c2ccccc2)CC1 [Compound 3440, N-(4-(5-(difluoromethyl)-1,3,4-oxadiazol-2-yl)-2-fluorobenzyl)-4-fluoro-1-isobutyryl N-phenylpiperidine-4-carboxamide]
14 | 4.36 | 543 fold | 7.09 | O=C(N(Cc1ccc(-c2nnc(C(F)F)o2)cn1)c1ccccc1)C1(F)CCN(C2CCC2)CC1 [Compound 2953, 1-cyclobutyl-N-((5-(5-(difluoromethyl)-1,3,4-oxadiazol-2-yl)pyridin-2-yl)methyl)-4-fluoro-N-phenylpiperidine-4-carboxamide]
15 | < 4.30 | 1,901 fold | 7.58 | CC(CO)N1CC(F)(C(=O)N(Cc2ccc(-c3nnc(C(F)F)o3)cn2)c2cccc(F)c2)C1 (stereo not drawn) [Compound 3094, N-((5-(5-(difluoromethyl)-1,3,4-oxadiazol-2-yl)pyridin-2-yl)methyl)-3-fluoro-N-(3-fluorophenyl)-1-(1-hydroxypropan-2-yl)azetidine-3-carboxamide]
16 | 4.67 | 392 fold | 7.26 | O=C(N(Cc1ccc(-c2nnc(C(F)F)o2)cn1)c1cccc(F)c1)C1(F)CN(C2CCC2)C1 [Compound 3049, 1-cyclobutyl-N-((5-(5-(difluoromethyl)-1,3,4-oxadiazol-2-yl)pyridin-2-yl)methyl)-3-fluoro-N-(3-fluorophenyl)azetidine-3-carboxamide]
17 | 4.59 | 773 fold | 7.48 | CC(C)N1CCC(N2CC(F)(C(=O)N(Cc3ccc(-c4nnc(C(F)F)o4)cn3)c3cccc(F)c3)C2)CC1 [Compound 3404, N-((5-(5-(difluoromethyl)-1,3,4-oxadiazol-2-yl)pyridin-2-yl)methyl)-3-fluoro-N-(3-fluorophenyl)-1-(1-isopropylpiperidin-4-yl)azetidine-3-carboxamide]
18 | 4.37 | 569 fold | 7.13 | CN1CCC(F)(C(=O)N(Cc2ccc(-c3nnc(C(F)F)o3)cn2)c2ccccc2)CC1 [Compound 2951, N-((5-(5-(difluoromethyl)-1,3,4-oxadiazol-2-yl)pyridin-2-yl)methyl)-4-fluoro-1-methyl-N-phenylpiperidine-4-carboxamide]
19 | 4.51 | 421 fold | 7.13 | CN1CC(F)(C(=O)N(Cc2ccc(-c3nnc(C(F)F)o3)cc2F)c2ccccc2)C1 [Compound 3429, N-(4-(5-(difluoromethyl)-1,3,4-oxadiazol-2-yl)-2-fluorobenzyl)-3-fluoro-1-methyl-N-phenylazetidine-3-carboxamide]
